Test results published in article PMC7368294 (Proceedings of the National Academy of Sciences of the …, 2020).

How the values were obtained:
[1] = biological target: Btα1/Btα2/Btα8/Btβ1 nAChR (Bombus terrestris, UniProt A0A9B0BGM1+A0A9B0F4H3+A0A9B2JDZ7+A0A9B2JMX7); assay: two-electrode voltage clamp of Xenopus oocytes, agonist concentration-response; assay type: cell-based
Amα1/Amα8/Amβ1 nAChR = biological target: T1, Amα1/Amα8/Amβ1 nAChR (Apis mellifera, UniProt A0A7M7MMZ9+A0A8U0WQ70+A0A8U0WQC0); assay: as above; assay type: cell-based
T1 sequence (A0A7M7MMZ9 44-627): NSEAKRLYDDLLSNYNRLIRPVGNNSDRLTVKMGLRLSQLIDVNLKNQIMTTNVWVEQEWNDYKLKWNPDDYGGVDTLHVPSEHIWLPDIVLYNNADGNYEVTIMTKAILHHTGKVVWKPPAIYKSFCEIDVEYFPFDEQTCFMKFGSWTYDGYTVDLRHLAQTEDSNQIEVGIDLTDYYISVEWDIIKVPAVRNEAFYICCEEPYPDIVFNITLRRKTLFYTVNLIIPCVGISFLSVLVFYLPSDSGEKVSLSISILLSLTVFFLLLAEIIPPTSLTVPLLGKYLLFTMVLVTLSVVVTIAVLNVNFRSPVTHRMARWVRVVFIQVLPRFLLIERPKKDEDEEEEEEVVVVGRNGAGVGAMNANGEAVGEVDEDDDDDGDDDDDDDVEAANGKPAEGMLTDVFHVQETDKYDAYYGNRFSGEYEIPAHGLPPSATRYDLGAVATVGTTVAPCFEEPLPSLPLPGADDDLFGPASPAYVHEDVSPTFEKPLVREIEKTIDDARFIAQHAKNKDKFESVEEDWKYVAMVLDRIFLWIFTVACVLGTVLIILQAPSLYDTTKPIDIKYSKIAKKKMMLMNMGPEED
T1 sequence (A0A8U0WQ70 25-537): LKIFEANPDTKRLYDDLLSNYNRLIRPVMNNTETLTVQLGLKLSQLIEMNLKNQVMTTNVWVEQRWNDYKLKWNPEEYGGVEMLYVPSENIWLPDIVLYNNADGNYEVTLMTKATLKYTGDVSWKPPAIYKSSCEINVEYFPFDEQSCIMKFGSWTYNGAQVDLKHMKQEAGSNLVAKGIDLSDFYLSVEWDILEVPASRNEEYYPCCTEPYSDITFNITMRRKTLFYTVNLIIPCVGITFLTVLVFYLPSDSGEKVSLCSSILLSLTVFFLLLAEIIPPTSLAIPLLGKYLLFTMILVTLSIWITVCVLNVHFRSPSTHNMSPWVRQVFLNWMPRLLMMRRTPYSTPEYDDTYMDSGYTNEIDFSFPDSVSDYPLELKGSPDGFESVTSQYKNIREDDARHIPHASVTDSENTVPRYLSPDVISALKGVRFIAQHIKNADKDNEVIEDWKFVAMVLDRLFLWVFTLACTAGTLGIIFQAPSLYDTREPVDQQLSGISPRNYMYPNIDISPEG
T1 sequence (A0A8U0WQC0 25-520): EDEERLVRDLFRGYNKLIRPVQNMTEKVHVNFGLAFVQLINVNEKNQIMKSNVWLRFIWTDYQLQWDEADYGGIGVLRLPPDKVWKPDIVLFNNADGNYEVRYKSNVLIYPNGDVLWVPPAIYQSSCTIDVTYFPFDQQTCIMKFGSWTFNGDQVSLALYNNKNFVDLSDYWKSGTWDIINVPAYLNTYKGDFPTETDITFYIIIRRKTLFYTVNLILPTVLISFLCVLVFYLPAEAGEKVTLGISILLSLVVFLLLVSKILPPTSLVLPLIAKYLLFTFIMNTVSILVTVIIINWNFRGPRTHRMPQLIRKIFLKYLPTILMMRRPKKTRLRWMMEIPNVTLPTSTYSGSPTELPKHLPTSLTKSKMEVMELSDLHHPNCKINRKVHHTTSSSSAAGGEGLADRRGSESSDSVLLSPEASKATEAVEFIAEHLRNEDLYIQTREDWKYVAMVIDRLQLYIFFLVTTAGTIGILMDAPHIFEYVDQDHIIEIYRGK

Btα1/Btα2/Btα8/Btβ1 nAChR, sequence (A0A9B0F4H3 44-615): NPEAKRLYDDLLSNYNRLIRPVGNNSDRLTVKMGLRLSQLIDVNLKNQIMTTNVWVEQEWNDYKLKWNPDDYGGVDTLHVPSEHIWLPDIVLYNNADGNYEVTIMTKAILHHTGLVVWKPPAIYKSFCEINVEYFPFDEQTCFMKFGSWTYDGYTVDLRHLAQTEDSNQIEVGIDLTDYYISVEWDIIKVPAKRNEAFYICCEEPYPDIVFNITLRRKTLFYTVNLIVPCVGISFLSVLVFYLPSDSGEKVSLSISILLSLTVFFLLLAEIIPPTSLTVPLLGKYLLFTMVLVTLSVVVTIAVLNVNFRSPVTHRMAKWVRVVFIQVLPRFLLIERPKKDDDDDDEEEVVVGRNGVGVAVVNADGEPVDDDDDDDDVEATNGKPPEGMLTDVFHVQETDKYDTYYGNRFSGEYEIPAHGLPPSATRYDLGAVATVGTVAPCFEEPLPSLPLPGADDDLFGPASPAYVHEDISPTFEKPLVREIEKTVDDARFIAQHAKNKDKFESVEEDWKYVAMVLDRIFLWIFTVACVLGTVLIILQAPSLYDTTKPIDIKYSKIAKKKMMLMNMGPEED
Btα1/Btα2/Btα8/Btβ1 nAChR, sequence (A0A9B2JMX7 18-544): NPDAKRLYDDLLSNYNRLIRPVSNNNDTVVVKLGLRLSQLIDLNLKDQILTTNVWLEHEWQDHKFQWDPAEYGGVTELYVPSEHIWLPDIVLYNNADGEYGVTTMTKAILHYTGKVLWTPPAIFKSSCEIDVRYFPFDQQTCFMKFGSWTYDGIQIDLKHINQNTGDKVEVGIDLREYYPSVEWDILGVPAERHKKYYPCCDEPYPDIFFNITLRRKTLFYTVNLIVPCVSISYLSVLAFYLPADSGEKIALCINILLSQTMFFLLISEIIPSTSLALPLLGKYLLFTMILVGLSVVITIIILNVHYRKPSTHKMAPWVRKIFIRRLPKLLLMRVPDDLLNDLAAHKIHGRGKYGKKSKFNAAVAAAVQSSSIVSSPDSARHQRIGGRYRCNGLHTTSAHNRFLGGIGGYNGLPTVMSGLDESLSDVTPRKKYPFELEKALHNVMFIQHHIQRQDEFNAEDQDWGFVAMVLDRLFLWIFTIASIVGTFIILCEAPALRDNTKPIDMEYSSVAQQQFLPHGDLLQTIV
Btα1/Btα2/Btα8/Btβ1 nAChR, sequence (A0A9B2JDZ7 22-535): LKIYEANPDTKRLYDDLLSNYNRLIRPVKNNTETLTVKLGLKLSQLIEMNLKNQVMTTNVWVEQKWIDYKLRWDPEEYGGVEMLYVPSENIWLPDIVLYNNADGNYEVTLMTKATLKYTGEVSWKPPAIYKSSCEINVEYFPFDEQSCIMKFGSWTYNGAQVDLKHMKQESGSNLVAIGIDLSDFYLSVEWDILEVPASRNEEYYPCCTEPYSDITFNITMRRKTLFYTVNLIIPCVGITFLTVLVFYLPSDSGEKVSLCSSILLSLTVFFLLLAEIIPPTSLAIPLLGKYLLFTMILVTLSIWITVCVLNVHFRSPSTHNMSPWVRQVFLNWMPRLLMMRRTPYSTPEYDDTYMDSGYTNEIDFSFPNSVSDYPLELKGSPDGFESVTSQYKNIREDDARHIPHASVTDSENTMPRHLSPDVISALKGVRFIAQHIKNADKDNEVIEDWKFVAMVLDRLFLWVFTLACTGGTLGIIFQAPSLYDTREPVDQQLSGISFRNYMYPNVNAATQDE
Btα1/Btα2/Btα8/Btβ1 nAChR, sequence (A0A9B0BGM1 19-519): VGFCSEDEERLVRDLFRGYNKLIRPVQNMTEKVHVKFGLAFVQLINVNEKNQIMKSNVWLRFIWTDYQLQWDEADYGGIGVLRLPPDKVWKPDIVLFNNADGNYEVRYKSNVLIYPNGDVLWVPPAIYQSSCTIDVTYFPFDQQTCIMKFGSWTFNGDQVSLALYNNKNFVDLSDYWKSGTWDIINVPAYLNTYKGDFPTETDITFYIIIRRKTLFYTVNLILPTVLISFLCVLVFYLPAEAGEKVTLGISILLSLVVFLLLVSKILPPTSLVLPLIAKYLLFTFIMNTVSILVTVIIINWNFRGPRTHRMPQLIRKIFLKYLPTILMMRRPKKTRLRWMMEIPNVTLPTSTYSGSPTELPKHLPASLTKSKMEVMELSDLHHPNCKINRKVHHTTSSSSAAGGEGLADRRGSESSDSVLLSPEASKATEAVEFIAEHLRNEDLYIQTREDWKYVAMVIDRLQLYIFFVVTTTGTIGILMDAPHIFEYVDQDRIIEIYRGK

Structure (SMILES) | EC50 [1] [nM] | EC50 (Amα1/Amα8/Amβ1 nAChR) [nM]
CN/C(=N\[N+](=O)[O-])NCc1cnc(Cl)s1 [clothianidin] | 38.9 | 11
N#C/N=C1\SCCN1Cc1ccc(Cl)nc1 [thiacloprid] | 72.4 | 11.5
O=[N+]([O-])NC1=NCCN1Cc1ccc(Cl)nc1 [imidacloprid] | 39.8 | 23.4
